Consider 42 compounds from patent US20030203975A1, “Anti-cancer agents” (priority 1998, published 2003).

Counter-ions that a name gives are not always drawn.

One data set deals with MAC 15A adenocarcinoma of the colon. Description: In vitro chemosensitivity against MAC 15A adenocarcinoma (MTT assay). It counts as cell-based. The conditions noted are these: 96 hours continuous exposure. On the procedure:
In Vitro Activity Against MAC 15A Adenocarcinoma.
MAC 15A cells were grown in RPMI 1640 medium supplemented with 10% foetal calf serum containing a 1% antibiotic mixture under standard tissue culture conditions and were maintained at 37° C. in a humidified atmosphere of 5% CO2 in air. Cells were harvested from a stock culture in exponential growth phase and plated in 96-well flat-bottomed plates to achieve a final density of 2×10^3 cells per well. After 2 hours incubation medium was replaced with either fresh medium containing 0.5% DMSO (control) or medium containing test compound dissolved in DMSO at a concentrations from 10 mM to 1 nM. Chemosensitivity was assessed using MTT assay by the method of Plumb et al Cancer Research 49 (1989) 4435-4440.
Following 96 hours continuous exposure to drug at 37° C. cells were incubated with fresh drug-free medium immediately prior to addition of MTT solution (5 mg/ml). Medium and MTT were removed after 4 hours and 150 μl of DMSO was added. For each plate the absorbance of the resulting solution was measured at the analytical wavelength 550 nm for formazan product, using a Labsystem Mutiskan. IC50 values were obtained from growth curves of drug concentration against % survival and are expressed in μm.
(In general: Tetrazolium dyes change colour on reduction, which living cells bring about.)
Turning to `C[C@H](N)C(=O)OCC(C)(C)Nc1cccc2c1C(=O)c1ccccc1C2=O` [Example 99, 2-[(9,10-dioxoanthryl)amino]-2-methylpropyl (2S)-2-amino propanoate trifluoroacetate], the midpoint of inhibition, the IC50, lay at 35 µM.
As for `CC(C)(COC(=O)CN)Nc1cccc2c1C(=O)c1ccccc1C2=O` [Example 97, 2-[(9,10-dioxoanthryl)amino]-2-methylpropyl 2-aminoacetate trifluoro-acetate], inhibition was half-maximal at 15 µM (IC50).
Same read-out and setting: as for `C[C@H](N)C(=O)OC1CCN(c2cccc3c2C(=O)c2ccccc2C3=O)CC1` [Example 117, 1-(9,10-dioxoanthryl)-4-piperidyl-(2S)-2-aminopropanoate trifluoro-acetate], the figure is 14 µM.
The same measure, in the same setting: as for “(2S)-2-[(9,10-dioxoanthryl)amino]propyl (2S)-2-propanoate trifluoroacetate [Example 119]”, the figure is 5.5 µM; as for `NCC(=O)N1CCC[C@H]1C(=O)OC[C@H](Cc1ccccc1)Nc1ccc(O)c2c1C(=O)c1c(O)cccc1C2=O` [Example 135, (2S)-2-[(4,8-dihydroxy-9,10-dioxoanthryl)amino]-3-phenylpropyl (2S) -1-(2-aminoacetyl)pyrrolidine-2-carboxylate trifluoroacetate], 2.5 µM.
Same read-out and setting: as for `C[C@H](N)C(=O)OC[C@@H]1CCCN1c1cccc2c1C(=O)c1ccccc1C2=O` [Example 121, [(2S)-1-(9,10-dioxoanthryl)pyrrolidin-2-yl]methyl (2S)-2-amino-propanoate trifluoroacetate], the figure is 22 µM.
With `N[C@@H](CCCNC(=O)OCc1ccccc1)C(=O)OCCCNc1cccc2c1C(=O)c1ccccc1C2=O` [Example 71, 1-[3-(N-δ-benzyloxycarbonyl-L-ornithyloxy)propylaminol]anthracene-9,10-dione trifluoroacetate], the IC50 – broadly, the concentration at which inhibition is half-maximal – amounted to 2.4 µM.
Same read-out and setting: the same measure for `C[C@H](N)C(=O)OCCc1ccc(Nc2cccc3c2C(=O)c2ccccc2C3=O)cc1` [Example 103]: 4.7 µM.
On the same count and under the same terms, the same measure for `C[C@@H](N)C(=O)OCCc1ccc(Nc2cccc3c2C(=O)c2ccccc2C3=O)cc1` [Example 105]: 3.4 µM.
`NCC(=O)OCCN1CCN(c2cccc3c2C(=O)c2ccccc2C3=O)CC1` [Example 107, 2-[4-(9,10-dioxoanthryl)piperazinyl]ethyl 2-aminoacetate bis-trifluoroacetate] returned a half-inhibitory concentration (IC50) of 24 µM.

Staying with this data set, now noted: Mus musculus, MAC15A, 96 h, 96 hours continuous exposure.
For the compound `CC(C)[C@H](N)C(=O)OCCCNc1ccc(O)c2c1C(=O)c1ccccc1C2=O` [Example 51, 4-hydroxy-1-[3-(L-valyloxy)propylamino]anthracene-9,10-dione tri-fluoroacetate], the IC50 worked out at 4.9 µM.
The compound `COc1ccc(C[C@H](N)C(=O)OCCCNc2cccc3c2C(=O)c2ccccc2C3=O)cc1` [Example 79, 1-[3-(O-methyl-L-tyrosyloxy)propylamino]anthracene-9,10dione tri-fluoroacetate] returned an IC50 of 3.5 µM.
With `C[C@H](N)C(=O)OCCOCCNc1cccc2c1C(=O)c1ccccc1C2=O` [Example 109, 1-[2-(2-{L-alanyloxy}ethoxy)ethylamino]anthracene-9,10-dione tri-fluoroacetate], the concentration for half-maximal inhibition (IC50) is 11.5 µM.
On the same count and under the same terms, as for `C[C@@H](N)C(=O)OCCOCCNc1cccc2c1C(=O)c1ccccc1C2=O` [Example 111, 1-[2-(2-{D-alanyloxy}ethoxy)ethylamino]anthracene-9,10-dione tri-fluoroacetate], the figure is 24 µM.

Still in this data set, the particulars now being: Mus musculus, MAC15A, 96 hours continuous exposure.
With `N[C@H](C(=O)OCCCNc1cccc2c1C(=O)c1ccccc1C2=O)c1ccccc1` [Example 73, 1-[3-(L-phenylglycyloxy)propylamino]anthracene-9,10dione trifluoro-acetate], the midpoint of inhibition, the IC50, lay at 5 µM.
Regarding `C[C@H](N)C(=O)OCCNc1cccc2c1C(=O)c1ccccc1C2=O` [Example 23, 1-[2-(L-alanyloxy)ethylamino]anthracene-9,10-dione trifluoroacetate], the midpoint of inhibition, the IC50, lay at 7.5 µM.
`NCC(=O)OCCCCNc1cccc2c1C(=O)c1ccccc1C2=O` [Example 81, 1-[4-(glycyloxy)butylamino]anthracene-9,10-dione trifluoroacetate] displayed a half-maximal inhibitory concentration (IC50) of 9.4 µM.
Still for that read-out and setting: as for `CCCC(=O)OCCCCNc1cccc2c1C(=O)c1ccccc1C2=O` [Example 89, 1-[4-(butanoyloxy)butylamino]anthracene-9,10-dione trifluoroacetate], the figure is 4.5 µM.
As for `CC(C)[C@H](N)C(=O)OCCNc1cccc2c1C(=O)c1ccccc1C2=O` [Example 25, 1-[2-(L-valyloxy)ethylamino]anthracene-9,10-dione trifluoroacetate], the IC50 worked out at 30 µM.
On to `N[C@@H](Cc1ccccc1)C(=O)OCCOCCNc1cccc2c1C(=O)c1ccccc1C2=O` [Example 113, 1-[2-(2-{L-phenylalanyloxy}ethoxy)ethylamino]anthracene-9,10-dione trifluoroacetate], for which it took 7 µM to reach half-maximal inhibition (IC50).
For `CN[C@@H](C)C(=O)OCCCCNc1cccc2c1C(=O)c1ccccc1C2=O` [Example 85, 1-[4-(methylalanyloxy)butylamino]anthracene-9,10-dione trifluoro-acetate], inhibition was half-maximal at 3.2 µM (IC50).
On the same count and under the same terms, the same measure for `N[C@H](Cc1ccccc1)C(=O)OCCOCCNc1cccc2c1C(=O)c1ccccc1C2=O` [Example 115, 1-{2-(2-[D-phenylalanyloxy]ethoxy)ethylamino}anthracene-9,10-dione trifluoroacetate]: 12 µM.
Still for that read-out and setting: the same measure for `N[C@@H](Cc1ccccc1)C(=O)OCCCNc1cccc2c1C(=O)c1ccccc1C2=O` [Example 39, 1-[3-(L-phenylalanyloxy)propylamino]anthracene-9,10-dione trifluoro-acetate]: 3 µM; for `N[C@@H](Cc1c[nH]c2ccccc12)C(=O)OCCCCCONc1cccc2c1C(=O)c1ccccc1C2=O` [Example 77, 1-[5-(L-tryptophyloxy)pentoxyamino]anthracene-9,10-dione trifluoro-acetate]: 5.5 µM; for `NCC(=O)NCC(=O)OCCCNc1cccc2c1C(=O)c1ccccc1C2=O` [Example 129, 1-[3-(glycylglycyloxy)propylamino]anthracene-9,10-dione trifluoro-acetate]: 4 µM.
Still for that read-out and setting: the same measure for `C[C@@H](N)C(=O)OCCCCCNc1cccc2c1C(=O)c1ccccc1C2=O` [Example 95, 1-[5-(D-alanyloxy)pentylamino]anthracene-9,10-dione trifluoroacetate]: 3.1 µM; for `N[C@@H](C(=O)OCCCNc1cccc2c1C(=O)c1ccccc1C2=O)c1ccccc1` [Example 75, 1-[3-(D-phenylglycyloxy)propylamino]anthracene-9, 10dione trifluoro-acetate]: 4.2 µM.
For the compound `CC(C)[C@@H](N)C(=O)OCCNc1cccc2c1C(=O)c1ccccc1C2=O` [Example 27, 1-[2-(D-valyloxy)ethylamino]anthracene-9,10-dione trifluoroacetate], the IC50 was found to be 14 µM.
Still for that read-out and setting: as for `C[C@H](N)C(=O)OCCCCCNc1cccc2c1C(=O)c1ccccc1C2=O` [Example 93, 1-[5-(L-alanyloxy)pentylamino]anthracene-9,10-dione trifluoroacetate], the figure is 3.5 µM.

System in the next data set: not given
Assay: not given
Conditions: not given
In the case of `C[C@H](NC(=O)OC(C)(C)C)C(=O)OCCCNc1cccc2c1C(=O)c1ccccc1C2=O`, the melting point (commonly the temperature, or range, at which the solid turns liquid) turned out to be 60 °C.
The same measure, in the same setting: as for `C[C@@H](NC(=O)OC(C)(C)C)C(=O)OCCCNc1cccc2c1C(=O)c1ccccc1C2=O`, the figure is 58 °C.
The same measure, in the same setting: the same measure for `C[C@@H](NC(=O)OC(C)(C)C)C(=O)OCCCCNc1cccc2c1C(=O)c1ccccc1C2=O` [Example 44, 1-[4-(N-tertiarybutoxycarbonyl-D-alanyloxy)butylamino] anthracene-9,10-dione]: 100 °C; for `CC(C)(C)OC(=O)N1CCC[C@H]1C(=O)OCCCNc1cccc2c1C(=O)c1ccccc1C2=O`: 121 °C.
Same read-out and setting: as for `CC(C)C[C@H](NC(=O)OC(C)(C)C)C(=O)NCC(=O)OCCCNc1cccc2c1C(=O)c1ccccc1C2=O`, the figure is 86 °C.
As for `CC[C@H](NC(=O)OC(C)(C)C)C(=O)OCCCCNc1cccc2c1C(=O)c1ccccc1C2=O`, the melting point is 58 °C.
On to `CC(C)(C)OC(=O)NCC(=O)OCCCNc1ccc(O)c2c1C(=O)c1ccccc1C2=O`, for which the melting point turned out to be 124 °C.
Same read-out and setting: as for `NCC(=O)OCCCCNc1cccc2c1C(=O)c1ccccc1C2=O` (as salt: trifluoroacetate) [Example 81, 1-[4-(glycyloxy)butylamino]anthracene-9,10-dione trifluoroacetate], the figure is 154 °C; as for `CC(C)(C)OC(=O)N[C@H](Cc1ccccc1)C(=O)OCCCNc1cccc2c1C(=O)c1ccccc1C2=O`, 168 °C; as for `CC(C)(C)OC(=O)NCC(=O)OCCCCNc1cccc2c1C(=O)c1ccccc1C2=O` [Example 80, 1-[4-(N-tertiarybutoxycarbonylglycyloxy)butylamino]anthracene-9,10-dione], 70 °C.
On the same count and under the same terms, the same measure for `C[C@@H](C(=O)OCCCCNc1cccc2c1C(=O)c1ccccc1C2=O)N(C)C(=O)OC(C)(C)C`: 62 °C.
As for `CN(CC(=O)OCCCCNc1cccc2c1C(=O)c1ccccc1C2=O)C(=O)OC(C)(C)C` [Example 82, 1-[4-(N-tertiarybutoxycarbonylsarcosyloxy)butylamino]anthracene-9,10-dione], the melting point was determined as 90 °C.
On to `CC(C)(C)OC(=O)NCC(=O)OCCCNc1ccc(O)c2c1C(=O)c1c(O)cccc1C2=O`, for which the melting point stood at 152 °C.
